BindingDB's records for doi:10.1002/chir.1172 (The Royal Danish School of Pharmacy, 2001)
Where “and” joins values, the source holds several entries; their conditions need not be identical. Identical values can stand only once.

Assays:
Glutamate receptor 3 = Glutamate receptor 3 (Rattus norvegicus, UniProt P19492)
[1] = molecular target: Glutamate receptor ionotropic, NMDA 1 (Rattus norvegicus, UniProt P35439)
[2] = molecular target: Glutamate receptor ionotropic, kainate 1 (Rattus norvegicus, UniProt P22756)
Glutamate receptor ionotropic, kainate 1, sequence (P22756 whole entry): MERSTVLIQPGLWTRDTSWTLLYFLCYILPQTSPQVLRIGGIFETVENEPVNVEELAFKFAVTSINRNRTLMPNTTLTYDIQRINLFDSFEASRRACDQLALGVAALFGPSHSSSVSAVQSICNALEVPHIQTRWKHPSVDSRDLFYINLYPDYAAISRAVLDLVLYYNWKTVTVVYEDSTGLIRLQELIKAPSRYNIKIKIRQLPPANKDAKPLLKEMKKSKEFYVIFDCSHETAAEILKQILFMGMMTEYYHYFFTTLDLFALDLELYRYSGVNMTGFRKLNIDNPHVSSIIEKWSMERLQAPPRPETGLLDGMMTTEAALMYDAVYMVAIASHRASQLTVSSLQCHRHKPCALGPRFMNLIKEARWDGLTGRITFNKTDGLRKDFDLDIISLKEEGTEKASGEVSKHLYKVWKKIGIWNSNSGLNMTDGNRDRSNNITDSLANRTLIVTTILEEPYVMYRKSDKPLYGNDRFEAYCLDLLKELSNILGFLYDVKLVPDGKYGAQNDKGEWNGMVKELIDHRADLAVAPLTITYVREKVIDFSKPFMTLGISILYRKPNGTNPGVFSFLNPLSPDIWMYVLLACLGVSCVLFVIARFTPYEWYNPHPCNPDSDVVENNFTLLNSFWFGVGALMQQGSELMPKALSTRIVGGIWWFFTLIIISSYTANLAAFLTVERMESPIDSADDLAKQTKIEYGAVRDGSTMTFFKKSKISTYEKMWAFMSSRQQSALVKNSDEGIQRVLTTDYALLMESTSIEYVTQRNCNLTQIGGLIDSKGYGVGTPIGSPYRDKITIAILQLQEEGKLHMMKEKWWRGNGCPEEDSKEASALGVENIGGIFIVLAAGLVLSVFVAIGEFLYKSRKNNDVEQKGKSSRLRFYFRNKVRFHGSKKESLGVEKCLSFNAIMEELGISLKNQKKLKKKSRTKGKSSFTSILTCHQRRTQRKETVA

Glutamate receptor 3, sequence (P19492 whole entry): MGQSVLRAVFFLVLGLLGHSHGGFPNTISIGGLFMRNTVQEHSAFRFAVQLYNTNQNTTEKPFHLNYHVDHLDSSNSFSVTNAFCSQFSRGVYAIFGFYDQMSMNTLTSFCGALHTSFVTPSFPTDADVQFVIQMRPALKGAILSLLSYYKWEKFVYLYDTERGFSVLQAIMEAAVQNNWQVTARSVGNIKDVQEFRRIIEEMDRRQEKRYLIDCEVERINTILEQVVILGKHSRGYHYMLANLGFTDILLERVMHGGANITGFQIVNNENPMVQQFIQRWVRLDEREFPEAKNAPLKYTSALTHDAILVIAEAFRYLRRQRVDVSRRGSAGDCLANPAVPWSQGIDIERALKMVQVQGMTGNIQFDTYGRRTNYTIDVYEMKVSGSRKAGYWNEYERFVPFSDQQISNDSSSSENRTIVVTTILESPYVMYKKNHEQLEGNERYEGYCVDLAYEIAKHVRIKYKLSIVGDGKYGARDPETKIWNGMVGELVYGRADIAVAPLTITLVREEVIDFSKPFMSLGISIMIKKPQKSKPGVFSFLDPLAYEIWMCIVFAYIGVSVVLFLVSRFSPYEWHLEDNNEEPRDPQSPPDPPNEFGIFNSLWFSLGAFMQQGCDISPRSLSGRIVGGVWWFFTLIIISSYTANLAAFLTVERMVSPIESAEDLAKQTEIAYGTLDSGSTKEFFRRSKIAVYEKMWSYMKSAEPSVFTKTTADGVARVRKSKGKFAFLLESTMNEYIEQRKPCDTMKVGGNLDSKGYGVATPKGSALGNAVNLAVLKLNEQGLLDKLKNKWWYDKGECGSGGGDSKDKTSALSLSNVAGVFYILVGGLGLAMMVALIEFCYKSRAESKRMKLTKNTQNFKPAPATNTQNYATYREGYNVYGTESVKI

Compound | Ki (Glutamate receptor 3) | Ki [1] | Ki [2]
N[C@@H](Cc1conc1C(=O)O)C(=O)O [Demethyl-ACPA] | 0.039 µM and 0.1 µM | > 10 µM | 
N[C@@H](Cc1conc1C(=O)O)C(=O)O [(R)-Demethyl-ACPA] | 9.4 µM | 4.5 µM | > 10 µM
C[C@H](NC(=O)CNC(=O)[C@@H](NC(=O)[C@H](Cc1ccccc1)NC(=O)CNC(=O)CNC(=O)[C@@H](N)Cc1ccccc1)[C@@H](C)O)C(=O)N[C@@H](CCCN=C(N)N)C(=O)N[C@@H](CCCCN)C(=O)N[C@@H](CO)C(=O)N[C@@H](C)C(=O)N[C@@H](CCCN=C(N)N)C(=O)N[C@@H](CCCCN)C(N)=O [OFQ/N (1-11),[Tyr10]] | 0.27 µM | > 10 µM | > 10 µM
Cc1onc(C(=O)O)c1C[C@H](N)C(=O)O | 0.025 µM | > 10 µM | 3.6 µM
Cc1onc(C(=O)O)c1C[C@@H](N)C(=O)O [(R)-ACPA] |  | > 10 µM | > 10 µM
Cc1onc(C(=O)O)c1CC(N)C(=O)O [(S)-2-AMINO-3-(3-CARBOXY-5-METHYLISOXAZOL-4-YL)PROPIONIC ACID] | 0.02 µM | > 10 µM | 6.3 µM
